Measured values taken from patent US5506239A, “Carbostyril derivative and platelets aggregation inhibitory agent” (Otsuka Pharmaceutical Co., Ltd., priority 1991, dated 1996).

These molecules were tested on platelets (assay: Platelets aggregation inhibitory activity (method of Born et al.), ADP-induced, human PRP (Pharmacological Test I)). Conditions: Homo sapiens, Platelet, 7.5 μM ADP, 37° C., read-out: IC50 ADP (50% platelets aggregation inhibition).
Assay type: cell-based, man
Procedure: (§1) The platelets aggregation inhibitory activity of each test compound was measured by the method of Born et al. [J. Physiol., London, 162, 67 (1962)], using Platelets Aggregation Tracer manufactured by Nikoh Bioscience Co., Ltd.
(§2) 9 volumes of a blood collected from person was mixed with 1 volume of a 3.8% aqueous sodium citrate solution. Part of the mixture was subjected to centrifugation at 1,100 rpm for 10 minutes to obtain a platelet rich plasma (PRP). The remainder of the mixture was also subjected to centrifugation at 3,000 rpm for 10 minutes to obtain a platelet poor plasma (PPP).
(§3) The number of platelets in the PRP was measured using Coulter Counter manufactured by Coulter Electronics Inc. Then, the PRP was diluted with the PPP so that the number of platelets in the dilution became 300,000, whereby a PRP solution was prepared.
(§4) 200 μl of this PRP solution and 2 ml of a solution containing a test compound at a given concentration were placed in an aggregation measurement cell and heated at 37° C. for 1 minute. Thereto was added 20 μl of adenosine diphosphate (ADP manufactured by Sigma Co.) or a collagen suspension (Collagen Reagent manufactured by Horm, Hormon-Chemie, Gmbh) to induce aggregation of platelets. The resulting mixture in the cell was measured for change of transmittance, after which a platelets aggregation curve was prepared. Incidentaly, the concentration of ADP or collagen was selected so that the final Concentration became 7.5 μM or 20 μg/ml.
(§5) Using the platelets aggregation curve, there was calculated a maximum aggregation rate (MAR) of platelets using the followoing formula: […]
(§6) wherein a represents a transmittance of the PRP obtained in the same manner; c represents a transmittance of the PPP obtained in the same manner; and b represents a transmittance at the maximum change, of the PRP solution containng the test compound and the aggregation inducer.
(§7) A MAR was also calculated as above, for the control containing no test compound.
(§8) Using the above two MARs, there were calculated platelets aggregation inhibitions (%) of each test compound at various concentrations using the following formula.
(§9) Inhibition=[1-(MAR of PRP solution containing test compound)/(MAR of PRP
(§10) solution containing no test compound)]×100
(§11) Using the above obtained platelets aggregation inhibitions (%) of each test compound at various concentrations, there was calculated a concentration (IC50) of each test compound for 50% platelets aggregation inhibition.

SMILES	IC50
CC(=O)NCCN(CC1CCCCCCC1)S(=O)(=O)CCCCOc1ccc2[nH]c(=O)ccc2c1 [Example 112]	0.83 µM
O=C([C@@H]1C[C@@H](O)CN1CCCCOc1ccc2[nH]c(=O)ccc2c1)N1CCCCC1 [Example 74]	17 µM
O=c1ccc2cc(OCCCCN(CCN3CCC4(CC3)OCCO4)CC3CCCCCCC3)ccc2[nH]1 [Example 47]	25 µM
O=c1ccc2cc(OCCCCCN(CCN(CCO)CCO)Cc3ccccc3)ccc2[nH]1 [Example 58]	3.8 µM
O=C(c1ccccc1)N(CCCCOc1ccc2[nH]c(=O)ccc2c1)CCN1CCC(O)CC1 [Example 42]	20 µM
O=c1ccc2cc(OCCCS(=O)(=O)N(CCN3CCC4(CC3)OCCO4)CC3CCCCCCC3)ccc2[nH]1 [Example 101]	2.9 µM
CN(C)C1CCN(CCN(CC2CCCCCCC2)S(=O)(=O)CCCOc2ccc3[nH]c(=O)ccc3c2)CC1 [Example 100]	13 µM
CN(C(=O)NCCCOc1ccc2[nH]c(=O)ccc2c1)C1CCCCC1 [Example 133]	2.9 µM
O=c1ccc2cc(OCCCCS(=O)(=O)N(CCN3CCCS3(=O)=O)Cc3ccccc3)ccc2[nH]1 [Example 105]	2.2 µM
O=c1ccc2cc(OCCCCN(CCN3CCOCC3)CC3CCCCCCC3)ccc2[nH]1 [Example 45]	22 µM
O=S(=O)(CCCOc1ccc2[nH]c(=S)ccc2c1)N(CCN1CCC(O)CC1)c1ccccc1 [Example 87]	4.7 µM
O=c1ccc2cc(OCCCS(=O)(=O)N(CCN3CCOCC3)CC3CCCCCCC3)ccc2[nH]1 [Example 98]	9.1 µM
O=c1ccc2cc(OCCCCN(CCN3CCC[C@H]3CO)CC3CCCCCCC3)ccc2[nH]1 [Example 49]	6.9 µM
COc1ccc(CN(CCN2CCC(O)CC2)S(=O)(=O)CCCCOc2ccc3[nH]c(=O)ccc3c2)cc1OC [Example 96]	8.7 µM
CCN(CC)C(=O)CN(CCCCOc1ccc2[nH]c(=O)ccc2c1)CC1CCCCCCC1 [Example 65]	11 µM
O=C(NCCCOc1ccc2[nH]c(=O)ccc2c1)N(CCN1CCC(O)CC1)CC1CCCCCCC1 [Example 131]	2.4 µM
O=c1ccc2cc(OCCCCS(=O)(=O)N(CCN3CCC(O)CC3)C3CCCCCCC3)ccc2[nH]1 [Example 88]	2.8 µM
O=c1ccc2cc(OCCCCS(=O)(=O)N(CCNCCO)CC3CCCCCCC3)ccc2[nH]1 [Example 108]	2.9 µM
CCOC(=O)CN(CC1CCCCCCC1)S(=O)(=O)CCCOc1ccc2[nH]c(=O)ccc2c1 [Example 114]	6.5 µM
CC(=O)NCCN(CC1CCCCCCC1)S(=O)(=O)CCCOc1ccc2[nH]c(=O)ccc2c1 [Example 111]	2.2 µM
O=c1ccc2cc(OCCCCCN(CCN3CCC(O)CC3)Cc3cccs3)ccc2[nH]1 [Example 40]	13 µM
O=c1ccc2cc(OCCCCCN(CCN3CCN(CCO)CC3)Cc3ccccc3)ccc2[nH]1 [Example 57]	18 µM
COc1ccc(CN(CCCCCOc2ccc3[nH]c(=O)ccc3c2)CCN2CCC(O)CC2)cc1OC [Example 35]	11 µM
O=c1ccc2cc(OCCCCN(Cc3ccccc3)S(=O)(=O)CCCn3ccnc3)ccc2[nH]1 [Example 122]	22 µM
O=c1ccc2cc(OCCCNC(=S)N(CCN3CCC(O)CC3)CC3CCCCCCC3)ccc2[nH]1 [Example 132]	2.4 µM
CN(C)C1CCN(CCN(CCCCOc2ccc3[nH]c(=O)ccc3c2)CC2CCCCCCC2)CC1 [Example 46]	20 µM
N#Cc1ccc(CN(CCCCCOc2ccc3[nH]c(=O)ccc3c2)CCN2CCC(O)CC2)cc1 [Example 33]	5.6 µM
O=c1ccc2cc(OCCCCCN(CCN3CCCS3(=O)=O)Cc3ccccc3)ccc2[nH]1 [Example 56]	14 µM

Each molecule was assayed on platelets (assay: Platelets aggregation inhibitory activity (method of Born et al.), collagen-induced, human PRP (Pharmacological Test I)). Conditions: Homo sapiens, Platelet, 20 μg/ml collagen, 37° C., read-out: IC50 Collagen (50% platelets aggregation inhibition).
Assay type: cell-based, man
Procedure: as §1, §2, §3, §4, §5, §6, §7, §8, §9, §10, §11

SMILES	IC50
CC(=O)NCCN(CC1CCCCCCC1)S(=O)(=O)CCCCOc1ccc2[nH]c(=O)ccc2c1 [Example 112]	0.69 µM
O=C([C@@H]1C[C@@H](O)CN1CCCCOc1ccc2[nH]c(=O)ccc2c1)N1CCCCC1 [Example 74]	20 µM
O=c1ccc2cc(OCCCCN(CCN3CCC4(CC3)OCCO4)CC3CCCCCCC3)ccc2[nH]1 [Example 47]	29 µM
O=c1ccc2cc(OCCCCCN(CCN(CCO)CCO)Cc3ccccc3)ccc2[nH]1 [Example 58]	4.8 µM
O=C(c1ccccc1)N(CCCCOc1ccc2[nH]c(=O)ccc2c1)CCN1CCC(O)CC1 [Example 42]	13 µM
O=c1ccc2cc(OCCCS(=O)(=O)N(CCN3CCC4(CC3)OCCO4)CC3CCCCCCC3)ccc2[nH]1 [Example 101]	3.2 µM
CN(C)C1CCN(CCN(CC2CCCCCCC2)S(=O)(=O)CCCOc2ccc3[nH]c(=O)ccc3c2)CC1 [Example 100]	6.5 µM
O=c1ccc2cc(OCCCCS(=O)(=O)N(CCN3CCCS3(=O)=O)Cc3ccccc3)ccc2[nH]1 [Example 105]	1.1 µM
O=c1ccc2cc(OCCCCN(CCN3CCOCC3)CC3CCCCCCC3)ccc2[nH]1 [Example 45]	25 µM
O=c1ccc2cc(OCCCS(=O)(=O)N(CCN3CCOCC3)CC3CCCCCCC3)ccc2[nH]1 [Example 98]	12 µM
O=c1ccc2cc(OCCCCN(CCN3CCC[C@H]3CO)CC3CCCCCCC3)ccc2[nH]1 [Example 49]	22 µM
COc1ccc(CN(CCN2CCC(O)CC2)S(=O)(=O)CCCCOc2ccc3[nH]c(=O)ccc3c2)cc1OC [Example 96]	6.5 µM
CCN(CC)C(=O)CN(CCCCOc1ccc2[nH]c(=O)ccc2c1)CC1CCCCCCC1 [Example 65]	14 µM
O=C(NCCCOc1ccc2[nH]c(=O)ccc2c1)N(CCN1CCC(O)CC1)CC1CCCCCCC1 [Example 131]	1.3 µM
O=c1ccc2cc(OCCCCS(=O)(=O)N(CCN3CCC(O)CC3)C3CCCCCCC3)ccc2[nH]1 [Example 88]	1.4 µM
O=c1ccc2cc(OCCCCS(=O)(=O)N(CCNCCO)CC3CCCCCCC3)ccc2[nH]1 [Example 108]	2 µM
CCOC(=O)CN(CC1CCCCCCC1)S(=O)(=O)CCCOc1ccc2[nH]c(=O)ccc2c1 [Example 114]	4 µM
CC(=O)NCCN(CC1CCCCCCC1)S(=O)(=O)CCCOc1ccc2[nH]c(=O)ccc2c1 [Example 111]	2.9 µM
O=c1ccc2cc(OCCCCCN(CCN3CCC(O)CC3)Cc3cccs3)ccc2[nH]1 [Example 40]	10 µM
O=c1ccc2cc(OCCCCCN(CCN3CCN(CCO)CC3)Cc3ccccc3)ccc2[nH]1 [Example 57]	17 µM
COc1ccc(CN(CCCCCOc2ccc3[nH]c(=O)ccc3c2)CCN2CCC(O)CC2)cc1OC [Example 35]	11 µM
O=c1ccc2cc(OCCCCN(Cc3ccccc3)S(=O)(=O)CCCn3ccnc3)ccc2[nH]1 [Example 122]	29 µM
O=c1ccc2cc(OCCCNC(=S)N(CCN3CCC(O)CC3)CC3CCCCCCC3)ccc2[nH]1 [Example 132]	1.8 µM
CN(C)C1CCN(CCN(CCCCOc2ccc3[nH]c(=O)ccc3c2)CC2CCCCCCC2)CC1 [Example 46]	20 µM
N#Cc1ccc(CN(CCCCCOc2ccc3[nH]c(=O)ccc3c2)CCN2CCC(O)CC2)cc1 [Example 33]	9.1 µM
O=c1ccc2cc(OCCCCCN(CCN3CCCS3(=O)=O)Cc3ccccc3)ccc2[nH]1 [Example 56]	7.7 µM
